{"source": "patent US20120009280A1", "about": "“METHOD OF REDUCING THE RATE OF DEGRADATION OF A BIOLOGICAL MATERIAL” (Bio-Energy Ingredients Limited, priority 2009, published 2012)", "key": {"[1]": {"test_system": "total micro-organism", "assay": "Total microbial (plate) count of spent brewer's / wet distiller's grains stored at ambient temperature", "type": "cell-based", "conditions": "dose 10% w/w; distiller's grains not de-watered, Examples 16-18"}, "[2]": {"test_system": "total micro-organism", "assay": "Total microbial (plate) count of spent brewer's / wet distiller's grains stored at ambient temperature", "type": "cell-based", "conditions": "dose 15% w/w; distiller's grains not de-watered, Examples 16-18", "from_the_text": "Samples of spent brewer's grains were drawn from the discharge line of a brewery in South Africa. The samples, packed in dry ice in a cold box, were transported over a distance of approximately 40 kilometres to a laboratory. At the laboratory, the samples were thoroughly mixed and initially split into a first portion (Portion 1) and a second portion (Portion 2). The second portion was about twice the size of the first. Portion 1 was left untreated. Material produced from Portion 1 and Portion 2 is designated below using the code “AR” (as received).\nPortion 2 was placed on a clean, standard, laboratory screen deck with 1.4 mm apertures supported from below. As much water as possible was manually squeezed out with a clean flat plastic disc and the sample was then manually remixed after the squeezing. The squeezed material was then split into a third portion (Portion 3) and a fourth portion (Portion 4) of approximately the same size. Material produced from Portion 3 and Portion 4 is designated below using the code “SO” (squeezed).\nPortion 4 was added to a high speed kitchen food-shredder and shredded for about two minutes. The shredded material was then returned to the 1.4 mm aperture screen and squeezed again, as described above, and manually remixed again after the second squeezing to produce a shredded and squeezed portion (Portion 5). Material produced from Portion 5 is designated below using the code “SH” (shredded).\nSamples of Portion 1 (“AR”), Portion 3 (“SO”) and Portion 5 (“SH”) were then delivered to a microbiological testing facility about 15 kilometres from the treatment laboratory. Each was tested for initial total microbial, yeast and mould counts, respectively.\nSeparate untreated samples were similarly stored under insect-proof screens at ambient temperature for seven days (as shown in Tables 1 and 2). During the trial period the ambient temperature ranged from 11 to 33 degrees C.\nAfter exposure to the environment for seven days, all of the samples were tested at a South African National Accreditation System (SANAS) approved microbiological testing facility. Each was tested for total micro-organism, yeast and mould counts to determine the affect of the various treatments.\nSamples of spent brewer's grains were drawn from the discharge line of a brewery in South Africa.\nAt the laboratory, the samples were thoroughly mixed and initially split into a first portion (Portion 1) and a second portion (Portion 2). Portion 1 was left untreated. A sample of Portion 1, was delivered immediately to a microbiological testing facility about 15 kilometres away from the treatment laboratory and was tested for initial total microbial, yeast and mould counts, respectively.\nSamples from Portion 2 were subjected to treatment with varying amounts of a powdered, commercially-available calcium oxide containing approximately 94% calcium oxide (CaO) as shown in Table 32. The treatments varied from 2.5 to 10% (w/w) calcium oxide addition. The samples were stored in batches (according to the calcium oxide treatment) under insect-proof screens at ambient temperature for fifty six days. […] During the trial period the ambient temperature ranged from 10 to 30 degrees C. As this period was the southern hemisphere spring/early summer, the humidity as well as ambient temperatures varied widely.\nSamples from each treatment were drawn every seven days. No further calcium oxide treatment or agitation took place after the initial mix. In each case the entire sample was isolated and delivered to the microbiological testing facility.\n(§1) In this trial the same source of wet distiller's grains (again with now partial water removal prior to treatment) was treated.\nas §1"}}, "data": [{"smiles": "[Ca+2].[O-]CC(O)CO.[O-]CC(O)CO", "note": "[Ca-DGO (p)]", "values": [{"measurement": "preservation time with total microbial counts <100 cfu/g", "setting": "[1]", "value": "≧2 weeks"}, {"measurement": "preservation time with total microbial counts <1000 cfu/g", "setting": "[1]", "value": "≧3 weeks"}, {"measurement": "preservation time with total microbial counts <10 cfu/g", "setting": "[2]", "value": "≧9 weeks"}, {"measurement": "preservation time with total microbial counts <100 cfu/g", "setting": "[2]", "value": "≧9 weeks"}, {"measurement": "preservation time with total microbial counts <1000 cfu/g", "setting": "[2]", "value": "≧9 weeks"}]}, {"smiles": "[Ca+2].[O-]CC(O)CO.[O-]CC(O)CO", "note": "[Ca-DGO (g)]", "values": [{"measurement": "preservation time with total microbial counts <100 cfu/g", "setting": "[1]", "value": "≧4 weeks"}, {"measurement": "preservation time with total microbial counts <1000 cfu/g", "setting": "[1]", "value": "≧4 weeks"}, {"measurement": "preservation time with total microbial counts <100 cfu/g", "setting": "[2]", "value": "≧9 weeks"}, {"measurement": "preservation time with total microbial counts <1000 cfu/g", "setting": "[2]", "value": "≧9 weeks"}]}]}
